The results in this text go back to patent US20050175696A1, “Drug granule coatings that impart smear resistance during mechanical compression” (priority 2003, published 2005).

SMILES strings stand for the structures. Values after ≈ are worked out from the molar mass of the structure shown.

The series can be described thus: Equilibrium solubility of topiramate in de-ionized water and in aqueous surfactant solutions. It is filed as physicochemical. The procedure:
The resulting solution saturated with the pharmaceutical agent is then filtered, typically under pressure through a 0.8-micron Millipore filter, and the concentration of the pharmaceutical agent in the solution is measured by any appropriate analytical method including gravimetric, ultraviolet spectrophometry, chromatography, and the like. The solubility of the pharmaceutical agent is measured at equilibrium.
A drug composition of the present invention was prepared as follows. Aqueous solutions of five surfactants were prepared. The selected surfactants were four grades of ethylene oxide/propylene oxide/ethylene oxide (LUTROL grades F127, F87, F 108, and F68) and PEG-40 stearate (MYRJ 52). Solutions were made at concentrations of 1, 5, and 15 weight percent. The aqueous surfactant blends solutions were chilled as necessary to promote complete dissolution of the surfactant prior to drug solubility studies.
The aqueous surfactant solutions were equilibrated to constant temperature in a 37° C. water bath. Then, neat topiramate drug was added slowly with stirring in about 10 mg increments to the surfactant solutions until no more drug dissolved. […] The resulting saturated solutions of drug were filtered through 0.8 micron filters and analyzed for drug concentration by refractive index chromatography. […]

One may read the solubility as the dissolved amount per volume that the medium holds.

Take `CC1(C)O[C@@H]2[C@@H](CO[C@@]3(COS(N)(=O)=O)OC(C)(C)O[C@@H]23)O1` [topiramate]: the solubility (37 °C, thermodynamic from solid, de-ionized water, no temperature printed at the place, read-out: Solubility of neat topiramate in de-ionized water) was about 12 mg/mL (≈ 35.4 mM). Also, the “Topiramate solubility in water in the presence of surfactant, compared to control without surfactant” value (LUTROL F127, F87, F108, F68 and MYRJ 52 solutions at 1, 5 and 15 weight percent, 37° C.) is on record as “increased by each surfactant”.
